In US20260053811A1, “METHODS OF TREATING HYPERTENSION IN OBESE SUBJECTS” (Mineralys Therapeutics, Inc., priority 2022, published 2026):

Columns and labels:
[1] = tested on: hypertensive subjects; test: Serum sodium; type: in vivo, human; conditions: active treatment cohorts; Parts 1 and 2
[2] = tested on: hypertensive subjects; test: Estimated glomerular filtration rate (eGFR, CKD-EPI equation); type: in vivo, human; conditions: Part 1
Procedure: In contrast, mean eGFR for the Placebo group was relatively stable throughout treatment, reaching a mean maximal reduction of −2.80 mL/min/1.73 m^2 at Week 2 (range: −0.83 mL/min/1.73 m^2 to −2.80 mL/min/1.73 m^2). Estimated glomerular filtration rate was estimated using the CKD-EPI equation.

## CC(=O)N[C@H]1CC[C@H](NC(=O)CN2CCN(c3nncc(-c4ccc(C)cc4)n3)CC2)CC1 [Compound A HBr]
[1]
  Serum sodium levels: decreased
[2]; 100 mg QD, Week 2
  eGFR mean maximum decline relative to baseline: 10.91 mL/min/1.73 m^2
[2]; Week 1, 12.5 mg BID
  Estimated Glomerular Filtration Rate, Mean (SD) Change from Baseline: −2.25 (8.42) mL/min/1.73 m^2
  Estimated Glomerular Filtration Rate, Mean (SD) Observed: 79.45 (15.19) mL/min/1.73 m^2
[2]; Week 1, 12.5 mg QD
  Estimated Glomerular Filtration Rate, Mean (SD) Change from Baseline: −4.30 (7.14) mL/min/1.73 m^2
  Estimated Glomerular Filtration Rate, Mean (SD) Observed: 73.57 (20.33) mL/min/1.73 m^2
[2]; Week 1, 25 mg BID
  Estimated Glomerular Filtration Rate, Mean (SD) Change from Baseline: −6.85 (8.88) mL/min/1.73 m^2
  Estimated Glomerular Filtration Rate, Mean (SD) Observed: 74.00 (13.13) mL/min/1.73 m^2
[2]; Week 1, 50 mg QD
  Estimated Glomerular Filtration Rate, Mean (SD) Change from Baseline: −2.96 (8.52) mL/min/1.73 m^2
  Estimated Glomerular Filtration Rate, Mean (SD) Observed: 74.21 (16.88) mL/min/1.73 m^2
[2]; Week 1, 100 mg QD
  Estimated Glomerular Filtration Rate, Mean (SD) Change from Baseline: −6.80 (10.03) mL/min/1.73 m^2
  Estimated Glomerular Filtration Rate, Mean (SD) Observed: 70.81 (17.66) mL/min/1.73 m^2
[2]; Week 2, 12.5 mg BID
  Estimated Glomerular Filtration Rate, Mean (SD) Change from Baseline: −3.69 (6.46) mL/min/1.73 m^2
  Estimated Glomerular Filtration Rate, Mean (SD) Observed: 78.86 (18.56) mL/min/1.73 m^2
[2]; Week 2, 12.5 mg QD
  Estimated Glomerular Filtration Rate, Mean (SD) Change from Baseline: −4.87 (5.03) mL/min/1.73 m^2
  Estimated Glomerular Filtration Rate, Mean (SD) Observed: 73.00 (20.81) mL/min/1.73 m^2
[2]; Week 2, 25 mg BID
  Estimated Glomerular Filtration Rate, Mean (SD) Change from Baseline: −5.42 (10.01) mL/min/1.73 m^2
  Estimated Glomerular Filtration Rate, Mean (SD) Observed: 75.43 (15.32) mL/min/1.73 m^2
[2]; Week 2, 50 mg QD
  Estimated Glomerular Filtration Rate, Mean (SD) Change from Baseline: −4.32 (9.06) mL/min/1.73 m^2
  Estimated Glomerular Filtration Rate, Mean (SD) Observed: 72.86 (16.55) mL/min/1.73 m^2
[2]; Week 2, 100 mg QD
  Estimated Glomerular Filtration Rate, Mean (SD) Change from Baseline: −10.91 (8.57) mL/min/1.73 m^2
  Estimated Glomerular Filtration Rate, Mean (SD) Observed: 65.56 (17.66) mL/min/1.73 m^2
[2]; Week 3, 12.5 mg BID
  Estimated Glomerular Filtration Rate, Mean (SD) Change from Baseline: −5.17 (8.54) mL/min/1.73 m^2
  Estimated Glomerular Filtration Rate, Mean (SD) Observed: 77.38 (16.68) mL/min/1.73 m^2
[2]; Week 3, 12.5 mg QD
  Estimated Glomerular Filtration Rate, Mean (SD) Change from Baseline: −2.05 (6.43) mL/min/1.73 m^2
  Estimated Glomerular Filtration Rate, Mean (SD) Observed: 77.21 (20.38) mL/min/1.73 m^2
[2]; Week 3, 25 mg BID
  Estimated Glomerular Filtration Rate, Mean (SD) Change from Baseline: −5.90 (8.63) mL/min/1.73 m^2
  Estimated Glomerular Filtration Rate, Mean (SD) Observed: 75.07 (11.95) mL/min/1.73 m^2
[2]; Week 3, 50 mg QD
  Estimated Glomerular Filtration Rate, Mean (SD) Change from Baseline: −2.35 (8.51) mL/min/1.73 m^2
  Estimated Glomerular Filtration Rate, Mean (SD) Observed: 74.81 (15.62) mL/min/1.73 m^2
[2]; Week 3, 100 mg QD
  Estimated Glomerular Filtration Rate, Mean (SD) Change from Baseline: −9.24 (10.99) mL/min/1.73 m^2
  Estimated Glomerular Filtration Rate, Mean (SD) Observed: 67.22 (19.24) mL/min/1.73 m^2
[2]; Week 4, 12.5 mg BID
  Estimated Glomerular Filtration Rate, Mean (SD) Change from Baseline: −6.58 (9.17) mL/min/1.73 m^2
  Estimated Glomerular Filtration Rate, Mean (SD) Observed: 76.30 (18.28) mL/min/1.73 m^2
[2]; Week 4, 12.5 mg QD
  Estimated Glomerular Filtration Rate, Mean (SD) Change from Baseline: −5.45 (6.37) mL/min/1.73 m^2
  Estimated Glomerular Filtration Rate, Mean (SD) Observed: 73.40 (19.29) mL/min/1.73 m^2
[2]; Week 4, 25 mg BID
  Estimated Glomerular Filtration Rate, Mean (SD) Change from Baseline: −6.69 (8.97) mL/min/1.73 m^2
  Estimated Glomerular Filtration Rate, Mean (SD) Observed: 73.48 (15.26) mL/min/1.73 m^2
[2]; Week 4, 50 mg QD
  Estimated Glomerular Filtration Rate, Mean (SD) Change from Baseline: −3.61 (9.24) mL/min/1.73 m^2
  Estimated Glomerular Filtration Rate, Mean (SD) Observed: 73.63 (16.75) mL/min/1.73 m^2
[2]; Week 4, 100 mg QD
  Estimated Glomerular Filtration Rate, Mean (SD) Change from Baseline: −9.46 (12.53) mL/min/1.73 m^2
  Estimated Glomerular Filtration Rate, Mean (SD) Observed: 67.23 (19.70) mL/min/1.73 m^2
[2]; Week 5, 12.5 mg BID
  Estimated Glomerular Filtration Rate, Mean (SD) Change from Baseline: −7.58 (8.00) mL/min/1.73 m^2
  Estimated Glomerular Filtration Rate, Mean (SD) Observed: 73.84 (20.78) mL/min/1.73 m^2
[2]; Week 5, 12.5 mg QD
  Estimated Glomerular Filtration Rate, Mean (SD) Change from Baseline: −3.60 (5.70) mL/min/1.73 m^2
  Estimated Glomerular Filtration Rate, Mean (SD) Observed: 75.25 (19.58) mL/min/1.73 m^2
[2]; Week 5, 25 mg BID
  Estimated Glomerular Filtration Rate, Mean (SD) Change from Baseline: −7.41 (9.65) mL/min/1.73 m^2
  Estimated Glomerular Filtration Rate, Mean (SD) Observed: 73.25 (14.75) mL/min/1.73 m^2
[2]; Week 5, 50 mg QD
  Estimated Glomerular Filtration Rate, Mean (SD) Change from Baseline: −4.10 (9.61) mL/min/1.73 m^2
  Estimated Glomerular Filtration Rate, Mean (SD) Observed: 70.58 (13.23) mL/min/1.73 m^2
[2]; Week 5, 100 mg QD
  Estimated Glomerular Filtration Rate, Mean (SD) Change from Baseline: −10.50 (10.94) mL/min/1.73 m^2
  Estimated Glomerular Filtration Rate, Mean (SD) Observed: 66.19 (19.58) mL/min/1.73 m^2
[2]; Week 6, 12.5 mg BID
  Estimated Glomerular Filtration Rate, Mean (SD) Change from Baseline: −6.45 (8.05) mL/min/1.73 m^2
  Estimated Glomerular Filtration Rate, Mean (SD) Observed: 74.70 (16.86) mL/min/1.73 m^2
[2]; Week 6, 12.5 mg QD
  Estimated Glomerular Filtration Rate, Mean (SD) Change from Baseline: −6.28 (6.77) mL/min/1.73 m^2
  Estimated Glomerular Filtration Rate, Mean (SD) Observed: 73.39 (20.48) mL/min/1.73 m^2
[2]; Week 6, 25 mg BID
  Estimated Glomerular Filtration Rate, Mean (SD) Change from Baseline: −8.02 (9.17) mL/min/1.73 m^2
  Estimated Glomerular Filtration Rate, Mean (SD) Observed: 72.64 (15.33) mL/min/1.73 m^2
[2]; Week 6, 50 mg QD
  Estimated Glomerular Filtration Rate, Mean (SD) Change from Baseline: −2.83 (8.61) mL/min/1.73 m^2
  Estimated Glomerular Filtration Rate, Mean (SD) Observed: 74.63 (16.59) mL/min/1.73 m^2
[2]; Week 6, 100 mg QD
  Estimated Glomerular Filtration Rate, Mean (SD) Change from Baseline: −9.94 (12.91) mL/min/1.73 m^2
  Estimated Glomerular Filtration Rate, Mean (SD) Observed: 66.19 (21.44) mL/min/1.73 m^2
[2]; Week 7, 12.5 mg BID
  Estimated Glomerular Filtration Rate, Mean (SD) Change from Baseline: −7.03 (8.98) mL/min/1.73 m^2
  Estimated Glomerular Filtration Rate, Mean (SD) Observed: 75.85 (21.29) mL/min/1.73 m^2
[2]; Week 7, 12.5 mg QD
  Estimated Glomerular Filtration Rate, Mean (SD) Change from Baseline: −7.17 (8.80) mL/min/1.73 m^2
  Estimated Glomerular Filtration Rate, Mean (SD) Observed: 72.50 (22.45) mL/min/1.73 m^2
[2]; Week 7, 25 mg BID
  Estimated Glomerular Filtration Rate, Mean (SD) Change from Baseline: −7.85 (9.47) mL/min/1.73 m^2
  Estimated Glomerular Filtration Rate, Mean (SD) Observed: 72.22 (13.89) mL/min/1.73 m^2
[2]; Week 7, 50 mg QD
  Estimated Glomerular Filtration Rate, Mean (SD) Change from Baseline: −5.46 (10.42) mL/min/1.73 m^2
  Estimated Glomerular Filtration Rate, Mean (SD) Observed: 69.68 (12.23) mL/min/1.73 m^2
[2]; Week 7, 100 mg QD
  Estimated Glomerular Filtration Rate, Mean (SD) Change from Baseline: −9.50 (12.17) mL/min/1.73 m^2
  Estimated Glomerular Filtration Rate, Mean (SD) Observed: 66.96 (21.02) mL/min/1.73 m^2
[2]; Week 8, 12.5 mg BID
  Estimated Glomerular Filtration Rate, Mean (SD) Change from Baseline: −6.66 (7.92) mL/min/1.73 m^2
  Estimated Glomerular Filtration Rate, Mean (SD) Observed: 76.32 (19.63) mL/min/1.73 m^2
[2]; Week 8, 12.5 mg QD
  Estimated Glomerular Filtration Rate, Mean (SD) Change from Baseline: −3.67 (8.10) mL/min/1.73 m^2
  Estimated Glomerular Filtration Rate, Mean (SD) Observed: 76.00 (21.00) mL/min/1.73 m^2
[2]; Week 8, 25 mg BID
  Estimated Glomerular Filtration Rate, Mean (SD) Change from Baseline: −5.55 (9.22) mL/min/1.73 m^2
  Estimated Glomerular Filtration Rate, Mean (SD) Observed: 75.11 (14.81) mL/min/1.73 m^2
